Measurements taken from patent US9505781B2, “Compositions comprising thienopyrimidine and thienopyridine compounds and methods of use thereof” (The Regents of the University of Michigan, priority 2013, dated 2016).
pIC50: −log10 of the molar value.

Molecular target: T1, menin-MLL interaction (Homo sapiens, UniProt O00255)
T1 sequence (O00255 1-610): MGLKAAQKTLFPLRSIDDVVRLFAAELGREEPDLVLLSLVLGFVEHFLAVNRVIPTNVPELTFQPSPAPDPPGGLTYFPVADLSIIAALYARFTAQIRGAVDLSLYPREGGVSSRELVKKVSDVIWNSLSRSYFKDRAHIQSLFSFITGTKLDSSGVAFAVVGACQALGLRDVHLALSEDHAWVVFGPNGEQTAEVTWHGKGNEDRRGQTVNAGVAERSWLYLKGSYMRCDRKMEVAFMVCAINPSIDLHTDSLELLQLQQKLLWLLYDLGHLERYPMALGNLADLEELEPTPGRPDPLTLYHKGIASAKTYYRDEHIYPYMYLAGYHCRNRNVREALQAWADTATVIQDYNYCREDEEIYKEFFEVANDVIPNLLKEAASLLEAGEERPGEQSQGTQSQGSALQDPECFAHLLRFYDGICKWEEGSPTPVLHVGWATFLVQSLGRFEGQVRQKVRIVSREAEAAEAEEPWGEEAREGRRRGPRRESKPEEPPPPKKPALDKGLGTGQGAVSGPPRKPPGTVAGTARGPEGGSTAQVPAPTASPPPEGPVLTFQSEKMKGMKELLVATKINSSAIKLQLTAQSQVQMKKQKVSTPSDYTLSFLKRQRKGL
Assay: biochemical
Description: Compounds that inhibit the interaction decrease the fluorescence anisotropy which is being used as a read-out for compound screening and for IC50 determination.

| Compound | pIC50 |
| --- | --- |
| FC(F)(F)Cc1cc2c(N3CCN(c4nnc(CC5CCCC5)s4)CC3)ncnc2s1 [Compound 19] | 5.70 to 6.30 |
| NCc1ccc(CN2CCC(CNc3ncnc4sc(CC(F)(F)F)cc34)CC2)cc1 [Compound 265] | 5.70 to 6.30 |
| N#Cc1cc2c(Br)c(CN3CCC(Nc4ncnc5sc(CC(F)(F)F)cc45)CC3)ccc2[nH]1 [Compound 298] | > 7.00 |
| FC(F)(F)Cc1sc2ncnc(N3CCN(c4nnc(C(F)(F)F)s4)CC3)c2c1I [Compound 6] | 6.30 to 7.00 |
| CC(C)NCC(O)Cn1c(C#N)cc2cc(CN3CCC(Nc4ncnc5sc(CC(F)(F)F)cc45)CC3)ccc21 (centres unmarked) [Compound 251] | 5.70 to 6.30 |
| CCCc1cc2c(N(C)C3CCN(Cc4ccccc4)CC3)ncnc2s1 [Compound 150] | 5.70 to 6.30 |
| N#Cc1cc2cc(CN3CCC(Nc4ncnc5sc(CC(F)(F)F)cc45)CC3)ccc2n1CCO [Compound 179] | > 7.00 |
| O=C(CCCc1ccccc1)N1CCN(c2ncnc3sc(CC(F)(F)F)cc23)CC1 [Compound 93] | 5.70 to 6.30 |
| O=C(Cc1ccc(NS(=O)(=O)C2CC2)cc1Cl)N1CCN(C2=NC=NC3SC(CC(F)(F)F)=CC23)CC1 (centres unmarked) [Compound 285] | > 7.00 |
| CO[C@@H](CO)Cn1c(C#N)cc2cc(CN3CCC(Nc4ncnc5sc(CC(F)(F)F)cc45)CC3)ccc21 [Compound 190] | > 7.00 |
| CS(=O)(=O)OCCn1c(C#N)cc2cc(CN3CCC(Nc4ncnc5sc(CC(F)(F)F)cc45)CC3)ccc21 [Compound 395] | > 7.00 |
| FC(F)(F)Cc1cc2c(NCC3CCN(Cc4ccccc4Cl)CC3)ncnc2s1 [Compound 260] | 6.30 to 7.00 |
| N#Cc1cc2cc(CN3CCC(Nc4ncnc5sc(CC(F)(F)F)cc45)CC3)ccc2n1CCn1cccn1 [Compound 196] | > 7.00 |
| N#Cc1[nH]c2ccc(CN3CCC(Nc4ncnc5sc(CC(F)(F)F)cc45)CC3)cc2c1N [Compound 233] | 6.30 to 7.00 |
| Cc1c(CN2CCC(Nc3ncnc4sc(CC(F)(F)F)cc34)CC2)c(O)cc2c1cc(C#N)n2CCO [Compound 387] | > 7.00 |
| N#Cc1cc2cc(CN3CCC(Nc4c(COCc5cc[nH]n5)cnc5sc(CC(F)(F)F)cc45)CC3)ccc2[nH]1 [Compound 420] | 5.70 to 6.30 |
| Cc1c(CN2CCC(Nc3ncnc4sc(CC(F)(F)F)cc34)CC2)ccc2c1cc(C#N)n2CC(N)=O [Compound 301] | > 7.00 |
| CC(=O)c1ccc(CN2CCC(CNc3ncnc4sc(CC(F)(F)F)cc34)CC2)cc1 [Compound 270] | 5.70 to 6.30 |
| CC1(C)CN=C(N2C[C@@H]3CC[C@H]2CN3c2ncnc3sc(CC(F)(F)F)cc23)S1 [Compound 2] | > 7.00 |
| Cc1ccc(CN2CCC(CNc3ncnc4sc(CC(F)(F)F)cc34)CC2)cc1 [Compound 275] | 5.70 to 6.30 |
| Cc1nc[nH]c1Cn1c(C#N)cc2c(C)c(CN3CCC(Nc4ncnc5sc(CC(F)(F)F)cc45)CC3)ccc21 [Compound 350] | > 7.00 |
| Cc1c(CN2CCC(Nc3ncnc4sc(CC(F)(F)F)cc34)CC2)ccc2c1cc(C#N)n2Cc1cnco1 [Compound 361] | > 7.00 |

| Compound | pIC50 |
| --- | --- |
| N#Cc1cc2c(C(F)F)c(CN3CCC(Nc4ncnc5sc(CC(F)(F)F)cc45)CC3)ccc2n1CC(N)=O [Compound 310] | > 7.00 |
| O=C1CCC(c2ccc(CC(=O)N3CCN(c4ncnc5sc(CC(F)(F)F)cc45)CC3)cc2)N1 (centres unmarked) [Compound 80] | 6.30 to 7.00 |
| CN1CCC(N2CCN(c3ncnc4sc(CC(F)(F)F)cc34)CC2)CC1 [Compound 27] | 5.70 to 6.30 |
| Cc1c(CN2CCC(Nc3ncnc4sc(CC(F)(F)F)cc34)CC2)ccc2c1cc(C#N)n2Cc1cc(Cc2ccc(=O)[nH]c2)[nH]n1 [Compound 347] | > 7.00 |
| FC(F)(F)Cc1cc2c(NCC3CCN(Cc4ccc(Cl)cc4Cl)CC3)ncnc2s1 [Compound 254] | 6.30 to 7.00 |
| Cc1c(CN2CCC(Nc3ncnc4sc(CC(F)(F)F)cc34)CC2)ccc2c1cc(C#N)n2Cc1cnc[nH]1 [Compound 349] | > 7.00 |
| Cc1c(CC(F)(F)F)sc2ncnc(NC3CCN(Cc4ccccc4)CC3)c12 [Compound 126] | 6.30 to 7.00 |
| COc1cc2c(cc(C#N)n2CCO)c(C)c1CN1CCC(Nc2ncnc3sc(CC(F)(F)F)cc23)CC1 [Compound 386] | > 7.00 |
| CC(O)(CO)Cn1c(C#N)cc2cc(CN3CCC(Nc4ncnc5sc(CC(F)(F)F)cc45)CC3)ccc21 (centres unmarked) [Compound 221] | > 7.00 |
| Cc1c(CN2CCC(Nc3ncnc4sc(CC(F)(F)F)cc34)CC2)ccc2c1cc(C#N)n2CC1CN(C)C(=O)CO1 (centres unmarked) [Compound 426] | > 7.00 |
| FC(F)(F)Cc1cc2c(NCC3CCN(Cc4ccc(C(F)(F)F)cc4Cl)CC3)ncnc2s1 [Compound 268] | 5.70 to 6.30 |
| FC(F)(F)Cc1cc2c(NCC3CCN(Cc4ccc(OC(F)(F)F)cc4)CC3)ncnc2s1 [Compound 271] | 5.70 to 6.30 |
| CCCc1cc2c(N3CCN(c4nnc(C(F)(F)F)s4)CC3)ncnc2s1 [Compound 33] | 5.70 to 6.30 |
| N#Cc1cc2cc(CN3CC[C@@H](Nc4ncnc5sc(CC(F)(F)F)cc45)[C@@H](CO)C3)ccc2[nH]1 [Compound 164] | > 7.00 |
| OCc1c(CC(F)(F)F)sc2ncnc(NC3CCN(Cc4ccccc4)CC3)c12 [Compound 112] | 6.30 to 7.00 |
| N#Cc1cc2cc(CN3CCC(Nc4ncnc5sc(CC(F)(F)F)cc45)CC3)ccc2n1CCC(N)=O [Compound 194] | > 7.00 |
| FC(F)(F)Cc1cc2c(NCC3CCN(Cc4ccc(N5CCCCC5)cc4)CC3)ncnc2s1 [Compound 255] | 6.30 to 7.00 |
| N#Cc1ccc2c(CN3CCC(Nc4ncnc5sc(CC(F)(F)F)cc45)CC3)c[nH]c2c1 [Compound 206] | > 7.00 |
| FC(F)(F)Cc1cc2c(NCC3CCN(Cc4ccc(Cl)cc4)CC3)ncnc2s1 [Compound 261] | 6.30 to 7.00 |
| Cc1c(CN2CCC(Nc3ncnc4sc(CC(F)(F)F)cc34)CC2)ccc2c1cc(C#N)n2CCn1cncn1 [Compound 304] | > 7.00 |
| O=C(Cc1ccc(CS(=O)(=O)C(F)(F)F)cc1)N1CCN(c2ncnc3sc(CC(F)(F)F)cc23)CC1 [Compound 79] | 6.30 to 7.00 |
| Cc1c(CN2CCC(Nc3ncnc4sc(CC(F)(F)F)cc34)CC2)ccc2c1cc(C#N)n2CCN1CCN(C)C(=O)C1 [Compound 356] | > 7.00 |

| Compound | pIC50 |
| --- | --- |
| Cc1c(CN2CCC(Nc3ncnc4sc(CC(F)(F)F)cc34)CC2)ccc2c1cc(C#N)n2CCN1CCN(C(=O)CCC2CC2)CC1 [Compound 344] | > 7.00 |
| O=C(Cc1ccc(NS(=O)(=O)CNCC(F)(F)F)cc1)N1CCN(c2ncnc3sc(CC(F)(F)F)cc23)CC1 [Compound 62] | > 7.00 |
| OCc1cc(O)ccc1CN1CCC(Nc2ncnc3sc(CC(F)(F)F)cc23)CC1 [Compound 107] | 6.30 to 7.00 |
| Nc1ccc(CN2CCC(Nc3ncnc4sc(CC(F)(F)F)cc34)CC2)cc1 [Compound 139] | 5.70 to 6.30 |
| FC(F)(F)Cc1cc2c(NC3CCN(Cc4cc[nH]c4)CC3)ncnc2s1 [Compound 134] | 6.30 to 7.00 |
| N#Cc1cc2cc(CN3CCC(Nc4ncnc5sc(CC(F)(F)F)cc45)CC3)ccc2n1CC(O)(CO)COCCC1CCCCC1 (centres unmarked) [Compound 413] | 6.30 to 7.00 |
| NS(=O)(=O)c1ccc(CN2CCC(Nc3ncnc4sc(CC(F)(F)F)cc34)CC2)cc1 [Compound 156] | 5.70 to 6.30 |
| COc1cc2[nH]c(C#N)cc2cc1CN1CCC(Nc2ncnc3sc(CC(F)(F)F)cc23)CC1 [Compound 181, 6-methoxy-5-((4-((6-(2,2,2-trifluoroethyl)thieno[2,3-d]pyrimidin-4-yl)amino)piperidin-1-yl)methyl)-1H-indole-2-carbonitrile] | > 7.00 |
| CS(=O)(=O)Nc1ccc(CC(=O)N2CCN(C3=NC=NC4SC(CC(F)(F)F)=CC34)CC2)c(Cl)c1 (centres unmarked) [Compound 64] | > 7.00 |
| Cc1c(CN2CCC(Nc3ncnc4sc(CC(F)(F)F)cc34)CC2)c(O)cc2[nH]c(C#N)cc12 [Compound 384] | > 7.00 |
| N#Cc1cc2c(CO)c(CN3CCC(Nc4ncnc5sc(CC(F)(F)F)cc45)CC3)ccc2n1CC(N)=O [Compound 325] | > 7.00 |
| N#Cc1cc2cc(CN3CCC(Nc4c(CO)cnc5sc(CC(F)(F)F)cc45)CC3)ccc2[nH]1 [Compound 278] | > 7.00 |
| CC(=O)NCCC(O)(CO)Cn1c(C#N)cc2c(C)c(CN3CCC(Nc4ncnc5sc(CC(F)(F)F)cc45)CC3)ccc21 (centres unmarked) [Compound 371] | > 7.00 |
| CCCc1cc2c(NC3CCN(Cc4ccccc4)CC3)ccnc2s1 [Compound 282] | 5.70 to 6.30 |
| COc1ccccc1CC(=O)N1CCN(c2ncnc3sc(CC(F)(F)F)cc23)CC1 [Compound 94] | 5.70 to 6.30 |
| N#Cc1cc2cc(CN3CCC(Nc4ncnc5sc(CC(F)(F)F)cc45)CC3)ccc2n1Cc1cc(OCCCC2CC2)n[nH]1 [Compound 414] | 6.30 to 7.00 |
| NS(=O)(=O)Cc1ccc(CC(=O)N2CCN(c3ncnc4sc(CC(F)(F)F)cc34)CC2)cc1 [Compound 44, (4-(2-oxo-2-(4-(6-(2,2,2-trifluoroethyl)thieno[2,3-d]pyrimidin-4-yl)piperazin-1-yl)ethyl)phenyl)methanesulfonamide] | > 7.00 |
| FC(F)(F)Cc1cc2c(NCC3CCN(Cc4ccccc4C(F)(F)F)CC3)ncnc2s1 [Compound 274] | 5.70 to 6.30 |
| O=C(Cc1ccccc1O)N1CCN(c2ncnc3sc(CC(F)(F)F)cc23)CC1 [Compound 68] | 6.30 to 7.00 |
| CS(=O)(=O)N1CCC[C@H]1CN[C@@H]1CN(Cc2ccccc2)CC[C@H]1Nc1ncnc2sc(CC(F)(F)F)cc12 [Compound 173] | 6.30 to 7.00 |
| N#Cc1cc2cc(CN3CCC(Nc4ncnc5sc(CC(F)(F)F)cc45)CC3)ccc2n1CC(=O)NC1CC1 [Compound 291] | > 7.00 |
